According to patent publication US9808428B2, “Compositions and methods for the delivery of therapeutics” (priority 2014, dated 2017):

System: HIV-1ADA
Assay: Antiretroviral activity by reverse transcriptase (RT) activity in HIV-1 infected MDM
Format: cell-based
Conditions: 30-100 μM; MDM challenged with HIV-1ADA >15 days after 8 hours of treatment
Method: The antiretroviral activity was determined by reverse transcriptase (RT) activity and HIV-1 p24 antigen expression in HIV-1 infected MDM. […] Overall, development of long acting targeted MVC, optionally together with reverse transcriptase, protease and/or integrase inhibitors leads to improved pharmacokinetics of cART and promote improved drug adherence and access.

SMILES: Cc1nnc(C(C)C)n1C1C[C@H]2CC[C@@H](C1)N2CC[C@H](NC(=O)C1CCC(F)(F)CC1)c1ccccc1 (stereo in doubt) [free MVC, maraviroc]
- RT activity reductions compared to untreated infected cells: 22%
